Measurements taken from article PMC12487887, “Global conformations of Pichia pastoris complex I are distinguished by the binding of a unique interdomain bridging subunit” (Science Advances, 2025).

Key:
[1] = molecular target: T1, Pp-CI (flavin site; NDUFV1) (Komagataella pastoris, UniProt E1UWA7); experiment: NADH:APAD+ and NADH:O2 oxidoreduction, absorbance […]-380 nm; format: biochemical; details: 100 μM NADH with 500 μM APAD+ or 200 μM NADH with Q10/AOX; pH 7.5, 32°C
T1 construct: gene nubm; native mitochondrial complex I, 44 subunits, purified in LMNG, in cMSP26 nanodiscs or proteoliposomes; with NADH-ubiquinone oxidoreductase 24 kDa subunit, mitochondrial; NADH-ubiquinone oxidoreductase 75 kDa subunit, mitochondrial
T1 sequence (E1UWA7 17-473): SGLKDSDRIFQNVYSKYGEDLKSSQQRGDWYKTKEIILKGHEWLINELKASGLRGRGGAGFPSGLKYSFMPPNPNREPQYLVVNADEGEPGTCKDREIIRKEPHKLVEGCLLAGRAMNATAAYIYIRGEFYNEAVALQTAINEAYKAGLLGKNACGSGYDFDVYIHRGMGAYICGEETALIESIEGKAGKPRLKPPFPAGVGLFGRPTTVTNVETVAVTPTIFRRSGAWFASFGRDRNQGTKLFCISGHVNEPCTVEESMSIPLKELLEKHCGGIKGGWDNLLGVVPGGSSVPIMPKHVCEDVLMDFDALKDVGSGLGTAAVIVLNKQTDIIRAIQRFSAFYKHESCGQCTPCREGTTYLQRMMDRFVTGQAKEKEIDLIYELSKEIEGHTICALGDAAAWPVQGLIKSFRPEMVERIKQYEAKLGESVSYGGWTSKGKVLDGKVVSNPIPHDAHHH

[2] = molecular target: T1, Pp-CI (flavin site; NDUFV1); experiment: NADH:APAD+ oxidoreduction in proteoliposomes; format: biochemical; details: 500 μM APAD+, 100 μM NADH; pH 7.5, 32°C
Pp-CI (Q10-binding site) = molecular target: T2, Pp-CI (Q10-binding site) (Komagataella pastoris, UniProt E1UWA8+E1UWB5+E1UWC2); experiment: NADH:O2 oxidoreduction with AOX, nanodiscs; format: biochemical; details: 200 μM NADH; Q10 in bilayer; pH 7.5, 32°C
T2 construct: gene nucm; native mitochondrial complex I, 44 subunits, purified in LMNG, in cMSP26 nanodiscs or proteoliposomes; with NADH-ubiquinone oxidoreductase 51 kDa subunit, mitochondrial; NADH-ubiquinone oxidoreductase 24 kDa subunit, mitochondrial

NDUFA9 subunit of Pp-CI = molecular target: T3, NDUFA9 subunit of Pp-CI (Komagataella pastoris, UniProt E1UWA9); experiment: cryo-EM structure; format: binding; details: state 1, closed, 2.8 Å
T3 construct: gene nuem; supernumerary subunit within native 44-subunit mitochondrial complex I in cMSP26 nanodiscs
T3 sequence (E1UWA9 36-384): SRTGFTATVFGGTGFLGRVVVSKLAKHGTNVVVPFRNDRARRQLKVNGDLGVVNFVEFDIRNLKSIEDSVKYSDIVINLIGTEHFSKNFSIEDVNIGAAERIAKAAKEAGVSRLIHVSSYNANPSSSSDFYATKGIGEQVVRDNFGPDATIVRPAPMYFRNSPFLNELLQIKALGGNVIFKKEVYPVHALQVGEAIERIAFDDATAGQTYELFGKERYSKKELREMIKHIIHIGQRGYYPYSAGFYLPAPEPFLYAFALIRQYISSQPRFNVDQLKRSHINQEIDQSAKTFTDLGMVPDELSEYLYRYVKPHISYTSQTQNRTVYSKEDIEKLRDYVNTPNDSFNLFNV

[3] = molecular target: T1, Pp-CI (flavin site; NDUFV1); experiment: cryo-EM structure; format: binding; details: state 1, closed, 2.8 Å
[4] = molecular target: Pichia pastoris complex I (NADH:ubiquinone oxidoreductase), the 43 subunits other than NUQM, with the flavoprotein subcomplex (Pichia pastoris (endogenous in strain X-33)); experiment: cryo-EM structure; Pp-CI reconstituted into proteoliposomes (Pp-CI-PLs), 10 mM Mops pH 7.5, 50 mM KCl; Talos Arctica 200 kV; focused 3D classification on NUQM and on the flavoprotein; NUQM-bound map 4.7 A
[5] = molecular target: Pichia pastoris complex I (NADH:ubiquinone oxidoreductase), the 43 subunits other than NUQM, with the flavoprotein subcomplex (Pichia pastoris (endogenous in strain X-33)); experiment: cryo-EM structure; Pp-CI purified in LMNG and reconstituted into cMSP26 nanodiscs with DOPC:DOPE:CDL and Q10, 10 mM Mops pH 7.5, 50 mM KCl; Titan Krios 300 kV; particles classified into four states (state 1 closed with NUQM 2.80 A; state 3 open without NUQM 3.34 A)

NC(=O)C1=CN([C@@H]2O[C@H](COP(=O)(O)OP(=O)(O)OC[C@H]3O[C@@H](n4cnc5c(N)ncnc54)[C@H](O)[C@@H]3O)[C@@H](O)[C@H]2O)C=CC1 [NADH]
NADH:APAD+ and NADH:O2 oxidoreduction, absorbance 340-380 nm [1]: the consistent rates of the flavin-localized NADH:APAD^+ reaction

CC(=O)c1ccc[n+]([C@@H]2O[C@H](COP(=O)(O)OP(=O)(O)OC[C@H]3O[C@@H](n4cnc5c(N)ncnc54)[C@H](O)[C@@H]3O)[C@@H](O)[C@H]2O)c1 [APAD^+]
NADH:APAD+ oxidoreduction in proteoliposomes [2]: the consistent rates of the flavin-localized NADH:APAD^+ reaction

COC1=C(OC)C(=O)C(C/C=C(\C)CC/C=C(\C)CC/C=C(\C)CC/C=C(\C)CC/C=C(\C)CC/C=C(\C)CC/C=C(\C)CC/C=C(\C)CC/C=C(\C)CCC=C(C)C)=C(C)C1=O [Q10]
NADH:O2 oxidoreduction with AOX, nanodiscs (Pp-CI (Q10-binding site)): confirming the rapid redox-cycling turnover of the Q10 contained in the ND bilayer

NC(=O)C1=CN([C@@H]2O[C@H](COP(=O)(O)OP(=O)(O)OC[C@H]3O[C@@H](n4cnc5c(N)ncnc54)[C@H](OP(=O)(O)O)[C@@H]3O)[C@@H](O)[C@H]2O)C=CC1 [NADPH]
cryo-EM structure (NDUFA9 subunit of Pp-CI): bound in NDUFA9

Cc1cc2nc3c(=O)[nH]c(=O)nc-3n(C[C@H](O)[C@H](O)[C@H](O)COP(=O)(O)O)c2cc1C [FMN]
cryo-EM structure [3]: canonical CI subunits that contain the FMN in the active site for NADH oxidation

B1: NUQM, supernumerary interdomain bridge subunit of Pichia pastoris complex I (natural protein)
chain: ALATIRNDLKLNFRFKADVLEKNVIRSILAETKNLEIDNKDKDLDEFKLYDLLSKMIKQRQDSAAIYLKEGSPDRFRQTGWNELREVDYITKYLEALPVASAEEIEAKVEPIVQSVLEEEGELKSPKEIFSRIPWKVVNQDWQASEGAVKNTVLRLYNLYKTDA
percent of outward-facing, flavoprotein-bound particles with NUQM bound [4]: 77% | percent of flavoprotein-containing particles with NUQM bound [5]: 68.1%
